Data: patent US9388140B2, “Substituted benzimidazoles” (priority 2011, dated 2016)

Biological target: human kinase Mps-1 (Homo sapiens (Human), UniProt P33981)
Assay: Mps-1 kinase assay (TR-FRET)
Type: biochemical
Conditions: N-terminally GST-tagged human full length recombinant Mps-1; 10 μM ATP; 1 μM biotinylated peptide substrate; read-out: Mps1 IC50
Summary of the method: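 GST-tagged full-length recombinant Mps-1 at about 1 nM final, adjusted per lot for linear range, phosphorylated a biotinylated peptide. Product bound Eu-anti-phospho(Ser/Thr) antibody over 1 h at 22° C and was read by TR-FRET to streptavidin-XLent. Compounds scored for kinase inhibition.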

human kinase Mps-1, sequence (P33981 whole entry): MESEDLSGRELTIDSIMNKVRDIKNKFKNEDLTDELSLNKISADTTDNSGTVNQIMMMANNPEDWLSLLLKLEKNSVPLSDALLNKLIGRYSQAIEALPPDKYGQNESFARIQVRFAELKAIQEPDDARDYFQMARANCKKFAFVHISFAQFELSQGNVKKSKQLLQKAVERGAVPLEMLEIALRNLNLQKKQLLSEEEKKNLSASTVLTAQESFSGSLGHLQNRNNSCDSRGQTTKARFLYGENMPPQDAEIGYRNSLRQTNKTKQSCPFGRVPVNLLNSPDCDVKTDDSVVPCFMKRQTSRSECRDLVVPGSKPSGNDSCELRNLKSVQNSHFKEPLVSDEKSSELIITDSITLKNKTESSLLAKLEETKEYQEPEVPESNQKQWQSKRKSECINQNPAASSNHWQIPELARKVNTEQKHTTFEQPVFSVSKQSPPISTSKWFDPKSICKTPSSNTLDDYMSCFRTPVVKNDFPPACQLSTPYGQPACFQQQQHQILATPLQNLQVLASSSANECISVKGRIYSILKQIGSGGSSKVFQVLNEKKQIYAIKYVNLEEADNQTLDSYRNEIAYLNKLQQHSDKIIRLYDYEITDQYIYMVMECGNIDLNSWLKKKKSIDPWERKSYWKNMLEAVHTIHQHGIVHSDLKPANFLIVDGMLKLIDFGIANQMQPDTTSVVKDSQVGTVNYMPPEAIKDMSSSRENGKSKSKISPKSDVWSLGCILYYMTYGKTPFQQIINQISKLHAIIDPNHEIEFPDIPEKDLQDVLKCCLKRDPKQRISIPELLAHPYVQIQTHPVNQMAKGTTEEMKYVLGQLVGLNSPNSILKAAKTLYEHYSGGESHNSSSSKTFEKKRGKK

SMILES | IC50
CCNC(=O)c1ccc(-n2cnc3c(NCCC(F)(F)F)cc(Oc4cccc(F)c4O)cc32)cc1C [Example 93, N-ethyl-4-{6-(3-fluoro-2-hydroxyphenoxy)-4-[(3,3,3-trifluoropropyl)amino]-1H-benzimidazol-1-yl}-2-methylbenzamide] | 4.1 nM
CNC(=O)c1ccc(-n2cnc3c(NCCC(F)(F)F)cc(Oc4cccc(O)c4)cc32)cc1C [Example 94, 4-{6-(3-hydroxyphenoxy)-4-[(3,3,3-trifluoropropyl)amino]-1H-benzimidazol-1-yl}-N,2-dimethylbenzamide] | 3.1 nM
CCNC(=O)c1ccc(-n2cnc3c(NCCC(F)(F)F)cc(Oc4cccc(O)c4)cc32)cc1C [Example 95, N-ethyl-4-{6-(3-hydroxyphenoxy)-4-[(3,3,3-trifluoropropyl)amino]-1H-benzimidazol-1-yl}-2-methylbenzamide] | 5.6 nM
Cc1cc(-n2cnc3c(NCCC(F)(F)F)cc(Oc4cccc(S(F)(F)(F)(F)F)c4)cc32)ccc1C(=O)NC1CC1 [Example 96, N-cyclopropyl-2-methyl-4-{6-[3-(pentafluoro-lambda^6-sulfanyl)phenoxy]-4-[(3,3,3-trifluoropropyl)amino]-1H-benzimidazol-1-yl}benzamide] | 4.8 nM
CNC(=O)c1ccc(-n2cnc3c(NCCC(F)(F)F)cc(Oc4ccc(O)cc4F)cc32)cc1C [Example 97, 4-{6-(2-fluoro-4-hydroxyphenoxy)-4-[(3,3,3-trifluoropropyl)amino]-1H-benzimidazol-1-yl}-N,2-dimethylbenzamide] | 4.6 nM
CCNC(=O)c1ccc(-n2cnc3c(NCCC(F)(F)F)cc(Oc4ccc(O)cc4F)cc32)cc1C [Example 98, N-ethyl-4-{6-(2-fluoro-4-hydroxyphenoxy)-4-[(3,3,3-trifluoropropyl)amino]-1H-benzimidazol-1-yl}-2-methylbenzamide] | 4.6 nM
CNC(=O)c1ccc(-n2cnc3c(NCCC(F)(F)F)cc(Oc4ccc(O)c(F)c4)cc32)cc1C [Example 99, 4-{6-(3-fluoro-4-hydroxyphenoxy)-4-[(3,3,3-trifluoropropyl)amino]-1H-benzimidazol-1-yl}-N,2-dimethylbenzamide] | 2.4 nM
CCNC(=O)c1ccc(-n2cnc3c(NCCC(F)(F)F)cc(Oc4ccc(O)c(F)c4)cc32)cc1C [Example 100, N-ethyl-4-{6-(3-fluoro-4-hydroxyphenoxy)-4-[(3,3,3-trifluoropropyl)amino]-1H-benzimidazol-1-yl}-2-methylbenzamide] | 3.4 nM
COc1ccc(C(=O)c2cc(NCCC(F)(F)F)c3ncn(-c4ccc(C(=O)NC5CC5)c(C)c4)c3c2)cc1F [Example 101, N-cyclopropyl-4-{6-(3-fluoro-4-methoxybenzoyl)-4-[(3,3,3-trifluoropropyl)amino]-1H-benzimidazol-1-yl}-2-methylbenzamide] | 6.4 nM
COc1ccc(C(O)c2cc(NCCC(F)(F)F)c3ncn(-c4ccc(C(=O)NC5CC5)c(C)c4)c3c2)cc1F (stereo not shown) [Example 102, N-cyclopropyl-4-{6-[(3-fluoro-4-methoxyphenyl)(hydroxy)methyl]-4-[(3,3,3-trifluoropropyl)amino]-1H-benzimidazol-1-yl}-2-methylbenzamide] | 1.8 nM
C=C(c1ccc(OC)c(F)c1)c1cc(NCCC(F)(F)F)c2ncn(-c3ccc(C(=O)NC4CC4)c(C)c3)c2c1 [Example 104, N-cyclopropyl-4-{6-[1-(3-fluoro-4-methoxyphenyl)vinyl]-4-[(3,3,3-trifluoropropyl)amino]-1H-benzimidazol-1-yl}-2-methylbenzamide] | 2.1 nM
COc1ccc(Cc2cc(NCCC(F)(F)F)c3ncn(-c4ccc(C(=O)NC5CC5)c(C)c4)c3c2)cc1F [Example 106, N-cyclopropyl-4-{6-(3-fluoro-4-methoxybenzyl)-4-[(3,3,3-trifluoropropyl)amino]-1H-benzimidazol-1-yl}-2-methylbenzamide] | 0.9 nM
Cc1ccc(F)cc1Oc1cc(NCCC(F)(F)F)c2ncn(-c3ccc(C(=O)NC4CC4)c(C)c3)c2c1 [Example 107, N-cyclopropyl-4-{6-(5-fluoro-2-methylphenoxy)-4-[(3,3,3-trifluoropropyl)amino]-1H-benzimidazol-1-yl}-2-methylbenzamide] | 5.3 nM
Cc1cc(-n2cnc3c(NCCC(F)(F)F)cc(C(=O)c4ccc(O)c(F)c4)cc32)ccc1C(=O)NC1CC1 [Example 108, N-cyclopropyl-4-{6-(3-fluoro-4-hydroxybenzoyl)-4-[(3,3,3-trifluoropropyl)amino]-1H-benzimidazol-1-yl}-2-methylbenzamide] | 17 nM
Cc1cc(-n2cnc3c(NCCC(F)(F)F)cc(Oc4cccc(C(F)F)c4)cc32)ccc1C(=O)NC1CC1 [Example 109, N-cyclopropyl-4-{6-[3-(difluoromethyl)phenoxy]-4-[(3,3,3-trifluoropropyl)amino]-1H-benzimidazol-1-yl}-2-methylbenzamide] | 2.8 nM
COc1ccccc1C(=O)c1cc(NCCC(F)(F)F)c2ncn(-c3ccc(C(=O)NC4CC4)c(C)c3)c2c1 [Example 110, N-cyclopropyl-4-{6-(2-methoxybenzoyl)-4-[(3,3,3-trifluoropropyl)amino]-1H-benzimidazol-1-yl}-2-methylbenzamide] | 12 nM
Cc1cc(-n2cnc3c(NCCC(F)(F)F)cc(Oc4cccc(O)c4)cc32)ccc1C(=O)NC1CC1 [Example 111, N-cyclopropyl-4-{6-(3-hydroxyphenoxy)-4-[(3,3,3-trifluoropropyl)amino]-1H-benzimidazol-1-yl}-2-methylbenzamide] | 0.6 nM
CNC(=O)c1ccc(-n2cnc3c(NCC4CCOCC4)cc(Oc4ccc(O)c(F)c4)cc32)cc1C [Example 112, 4-{6-(3-fluoro-4-hydroxyphenoxy)-4-[(tetrahydro-2H-pyran-4-ylmethyl)amino]-1H-benzimidazol-1-yl}-N,2-dimethylbenzamid] | 3.6 nM
CCNC(=O)c1ccc(-n2cnc3c(NCC4CCOCC4)cc(Oc4ccc(O)c(F)c4)cc32)cc1C [Example 113A, N-ethyl-4-{6-(3-fluoro-4-hydroxyphenoxy)-4-[(tetrahydro-2H-pyran-4-ylmethyl)amino]-1H-benzimidazol-1-yl}-2-methylbenzamide] | 6.3 nM
CCNC(=O)c1ccc(-n2cnc3c(NCC4CCOCC4)cc(Oc4ccc(OC)c(SC)c4)cc32)cc1C [Example 113B, N-ethyl-4-{6-[4-methoxy-3-(methylsulfanyl)phenoxy]-4-[(tetrahydro-2H-pyran-4-ylmethyl)amino]-1H-benzimidazol-1-yl}-2-methylbenzamide] | 54 nM
Cc1cc(-n2cnc3c(NCC4CCOCC4)cc(Oc4ccc(O)c(F)c4)cc32)ccc1C(=O)NC1CC1 [Example 114A, N-cyclopropyl-4-{6-(3-fluoro-4-hydroxyphenoxy)-4-[(tetrahydro-2H-pyran-4-ylmethyl)amino]-1H-benzimidazol-1-yl}-2-methylbenzamide] | 0.7 nM
COc1ccc(Oc2cc(NCC3CCOCC3)c3ncn(-c4ccc(C(=O)NC5CC5)c(C)c4)c3c2)cc1SC [Example 114B, N-cyclopropyl-4-{6-[4-methoxy-3-(methylsulfanyl)phenoxy]-4-[(tetrahydro-2H-pyran-4-ylmethyl)amino]-1H-benzimidazol-1-yl}-2-methylbenzamide] | 6.7 nM
CNC(=O)c1ccc(-n2cnc3c(NCC4CCOCC4)cc(Oc4ccc(O)cc4F)cc32)cc1C [Example 115A, 4-{6-(2-fluoro-4-hydroxyphenoxy)-4-[(tetrahydro-2H-pyran-4-ylmethyl)amino]-1H-benzimidazol-1-yl}-N,2-dimethylbenzamide] | 7.3 nM
CNC(=O)c1ccc(-n2cnc3c(NCC4CCOCC4)cc(Oc4ccc(OC)cc4SC)cc32)cc1C [Example 115B, 4-{6-[4-methoxy-2-(methylsulfanyl)phenoxy]-4-[(tetrahydro-2H-pyran-4-ylmethyl)amino]-1H-benzimidazol-1-yl}-N,2-dimethylbenzamide] | 28.9 nM
Cc1cc(-n2cnc3c(NCC4CCOCC4)cc(Oc4ccc(O)cc4F)cc32)ccc1C(=O)NC1CC1 [Example 116A, N-cyclopropyl-4-{6-(2-fluoro-4-hydroxyphenoxy)-4-[(tetrahydro-2H-pyran-4-ylmethyl)amino]-1H-benzimidazol-1-yl}-2-methylbenzamide] | 1 nM
COc1ccc(Oc2cc(NCC3CCOCC3)c3ncn(-c4ccc(C(=O)NC5CC5)c(C)c4)c3c2)c(SC)c1 [Example 116B, N-cyclopropyl-4-{6-[4-methoxy-2-(methylsulfanyl)phenoxy]-4-[(tetrahydro-2H-pyran-4-ylmethyl)amino]-1H-benzimidazol-1-yl}-2-methylbenzamide] | 2.9 nM
CCNC(=O)c1ccc(-n2cnc3c(NCC4CCOCC4)cc(Oc4ccc(O)cc4F)cc32)cc1C [Example 117A, N-ethyl-4-{6-(2-fluoro-4-hydroxyphenoxy)-4-[(tetrahydro-2H-pyran-4-ylmethyl)amino]-1H-benzimidazol-1-yl}-2-methylbenzamide] | 6.7 nM
CCNC(=O)c1ccc(-n2cnc3c(NCC4CCOCC4)cc(Oc4ccc(OC)cc4SC)cc32)cc1C [Example 117B, N-ethyl-4-[6-{4-methoxy-2-(methylsulfanyl)phenoxy]-4-[(tetrahydro-2H-pyran-4-ylmethyl)amino]-1H-benzimidazol-1-yl}-2-methylbenzamide] | 25.8 nM
